In publication PMC9821961, “Ring-Modified Histidine-Containing Cationic Short Peptides Exhibit Anticryptococcal Activity by Cellular Disruption” (Molecules, 2022):
Converted amounts (≈) assume the structure as drawn. Like-named read-outs stand apart in the source and are kept apart here. Each block holds one compound with its values, some of them ahead of it.

How the values were obtained:
[1] = system: Cryptococcal cells
[2] = system: Cryptococcal cells; experiment: microbe, parasite or virus in culture; conditions: Cryptococcus neoformans, read-out: MIC Alone
[3] = system: C. neoformans; experiment: microbe, parasite or virus in culture; format: cell-based, Cryptococcus neoformans
From the text: (§1) Microbial strains: Microbial strains were procured from National Culture Collection of Pathogenic Fungi (NCCPF) at the Postgraduate Institute of Medical Education & Research (PGIMER), Chandigarh and Microbial Type Culture Collection and Gene bank (MTCC) at the Institute of Microbial Technology (IMTECH), Chandigarh, India. Peptides were screened against five different strains of fungi: viz. Candida albicans (NCCPF400034), Candida glabrata (MTCC 3019), Candida parapsilosis (NCCPF 440002), Candida krusei (NCCPF 440002) and Cryptococcus neoformans (NCCPF250316), and five strains of bacteria: viz. Escherichia coli (MTCC 2961), Staphylococcus aureus (MTCC 3160), Enterococcus faecalis (MTCC 439), Streptococcus pyogenes (MTCC 442) and Pseudomonas aeruginosa (MTCC 3542).
(§2) Growth media: Antifungal susceptibility testing was carried out using standard broth microdilution assays as per the Clinical and Laboratory Standards Institute (CLSI) guidelines for fungi. RPMI 1640 (Sigma), yeast extract, peptone and dextrose (YPED, Himedia) were used as the incubation broths. The cells were diluted to a cell density of 10^3 colony forming unit (CFU/mL) and incubated at 30 °C for 48 h. Furthermore, Muller Hinton (Himedia) media was utilized for bacterial strains and antibacterial activity was evaluated per CLSI guidelines for bacteria. Bacterial cells were diluted to a cell density of 10^5 CFU/mL and incubated at 37 °C for 24 h. Amphotericin B (Himedia, India) and rifampicin (Himedia, India) were used as standard drugs for the evaluation of activity against all the fungal and bacterial strains, respectively.
(§3) The stock solutions of peptides (2 mg/mL) were prepared in DMSO. Specific amounts of peptide from stock solution were added to a 96-well microtiter plate containing 100 μL of growth media and then serially diluted two-fold. A further 100 μL of growth media containing microbial cells were added to each well and incubated at 30–37 °C for 24–48 h. The optical density (OD) was measured at 600 nm using a BioStack Ready (BioTek Instruments, Winooski, VT, USA) microplate reader to analyze microbial growth inhibition, and IC50 and MIC values were calculated. To visualize the growth and inhibition pattern, a solution of 3-(4,5-dimethylthiazol-2-yl)-2,5-diphenyltetrazolium bromide (MTT) in water was added to the plate and incubated for 2–3 h. MTT reacts with the mitochondrial dehydrogenases, which are present only in a viable cell, to give blue colored formazan crystals. Therefore, a darker color indicates a high number of viable cells; however, non-viable cells appear pale or colorless.

[4] = system: C. albicans; experiment: microbe, parasite or virus in culture; format: cell-based, Candida albicans
From the text: as §1, §2, §3

[5] = system: C. glabrata; experiment: microbe, parasite or virus in culture; format: cell-based, Candida glabrata
From the text: as §1, §2, §3

[6] = system: C. parapsilosis; experiment: microbe, parasite or virus in culture; format: cell-based, Candida parapsilosis
From the text: as §1, §2, §3

[7] = system: C. krusei; experiment: microbe, parasite or virus in culture; format: cell-based, Candida krusei
From the text: as §1, §2, §3

[8] = system: C. neoformans cells; experiment: Time kill assay; conditions: time-kill profile over 24 h
[9] = system: C. neoformans cells; experiment: CLSM FITC-labeled peptide uptake assay; format: cell-based, Cryptococcus neoformans; conditions: FITC-tagged peptide, 12 h
Description: After incubation, cells were harvested by centrifugation at 2000× g for 10 min at 4 °C and suspended in PBS and mounted on a slide for visualization under a confocal microscope with excitation and emission wavelengths of 488 nm and 515 nm, respectively.

Structure (SMILES): OC(Cn1cncn1)(Cn1cncn1)c1ccc(F)cc1F [Flu, fluconazole]
Effect ([1]; combination 10o + Flu): Additive | FICI ([1]; combination 10o + Flu): 1.00 | Fold Decrease in MIC ([1]; combination 10o + Flu): 2 | MIC In Combination ([1]; combination 10o + Flu): 5.0 µg/mL | Effect ([1]; combination 10d + Flu): Synergistic | FICI ([1]; combination 10d + Flu): 0.19 | Fold Decrease in MIC ([1]; combination 10d + Flu): 16 | MIC In Combination ([1]; combination 10d + Flu): 0.625 µg/mL | Fold Decrease in MIC ([1]; combination 10d + Flu, listed as fluconazole): approx. 16 | MIC Alone ([1]; cryptococcal cells, agent alone): 10.0 µg/mL (≈ 32.7 µM) | MIC [2]: 10 µg/mL (≈ 32.7 µM)

IC50 ([3]; Cryptococcus neoformans, C. neoformans, concentration that leads to ~50% inhibition of growth, read-out: IC50): 0.5 µg/mL (≈ 0.541 µM) | MIC ([3]; Cryptococcus neoformans, C. neoformans, lowest test concentration with no detectable growth, read-out: MIC): 1 µg/mL (≈ 1.08 µM) | IC50 ([4]; Candida albicans, C. albicans, read-out: IC50): 0.36 µg/mL (≈ 0.39 µM) | MIC ([4]; Candida albicans, C. albicans, read-out: MIC): 0.72 µg/mL (≈ 0.779 µM) | IC50 ([5]; Nakaseomyces glabratus, C. glabrata, read-out: IC50): 0.18 µg/mL (≈ 0.195 µM) | MIC ([5]; Nakaseomyces glabratus, C. glabrata, read-out: MIC): 0.36 µg/mL (≈ 0.39 µM) | IC50 ([6]; Lodderomyces parapsilosis, C. parapsilosis, read-out: IC50): 0.36 µg/mL (≈ 0.39 µM) | MIC ([6]; Lodderomyces parapsilosis, C. parapsilosis, read-out: MIC): 0.72 µg/mL (≈ 0.779 µM) | IC50 ([7]; Pichia kudriavzevii, C. krusei, read-out: IC50): 0.36 µg/mL (≈ 0.39 µM) | MIC ([7]; Pichia kudriavzevii, C. krusei, read-out: MIC): 0.72 µg/mL (≈ 0.779 µM) | Fold Decrease in MIC ([1]; combination 10o + Amp B): 4 | MIC In Combination ([1]; combination 10o + Amp B): 0.250 µg/mL | Fold Decrease in MIC ([1]; combination 10d + Amp B): 8 | MIC In Combination ([1]; combination 10d + Amp B): 0.125 µg/mL | MIC [2]: 1 µg/mL (≈ 1.08 µM)
Structure (SMILES): C[C@@H]1[C@H](O)[C@@H](C)/C=C/C=C/C=C/C=C/C=C/C=C/C=C/[C@H](O[C@@H]2O[C@H](C)[C@@H](O)[C@H](N)[C@@H]2O)C[C@@H]2O[C@](O)(C[C@@H](O)C[C@@H](O)[C@H](O)CC[C@@H](O)C[C@@H](O)CC(=O)O[C@H]1C)C[C@H](O)[C@H]2C(=O)O [Amphotericin B, reference compound]
Effect ([1]; combination 10o + Amp B): Synergistic | FICI ([1]; combination 10o + Amp B): 0.31 | Effect ([1]; combination 10d + Amp B): Synergistic | FICI ([1]; combination 10d + Amp B): 0.18 | Time after which growth/CFUs of cryptococcal cells dropped or were inhibited [8]: 4 h

MIC ([3]; 48 h): >64.0 µg/mL | IC50 ([4]; 48 h): >35.2 µg/mL | MIC ([4]; 48 h): >64.0 µg/mL | IC50 ([5]; 48 h): >35.2 µg/mL | MIC ([5]; 48 h): >64.0 µg/mL | IC50 ([6]; 48 h): >35.2 µg/mL | MIC ([6]; 48 h): >64.0 µg/mL | IC50 ([7]; 48 h): >35.2 µg/mL | MIC ([7]; 48 h): >64.0 µg/mL
Structure (SMILES): COC(=O)[C@H](Cc1ncn(Cc2ccc([N+](=O)[O-])cc2)c1I)NC(=O)[C@@H](N)Cc1c[nH]c2ccccc12 [10h]
Fluorescence of cells incubated with FITC-labeled peptide (CLSM) [9]: did not show any fluorescence
